Assay [1] deals with T1, KRas G12C (Homo sapiens, UniProt P01116, G12C).
T1 construct: NCI-11358 cells (ATCC CRL-5807) express KRas G12C; host or cells: NCI-H358
The assay can be described thus: Cellular inhibition of KRas G12C measured by Phospho-ERK in NCI-11358 cells. Format: cell-based. The conditions noted are these: NCI-11358 cells (ATCC CRL-5807), 3 hours; read-out: Inhibition (IC50, pERK (Thr202/Tyr204) signal normalized with GAPDH). As for the experimental part:
The cellular inhibition of KRAs G12C by exemplary compounds of the present invention was determined by measuring the amount of a downstream marker of KRas activity, phosphorylated ERK (“Phospho-ERK”).
NCI-11358 cells (ATCC CRL-5807) express KRas G12C and were grown in RPMI medium supplemented with 10% fetal bovine serum, penicillin/streptomycin and 10 mM HEPES. Cells were plated in poly-D-Lysine coated 96-well plates at a concentration of 50,000 cells/well and allowed to attach for 8-12 hours. Diluted compounds were then added at a final concentration of 0.5% DMSO. After 3 hours, the medium was removed, 150 μL of 4% formaldehyde was added and the plates were incubated for 20 minutes. The plates were washed with PBS, and permeabilized using 150 μL of ice cold 100% methanol for 10 minutes. Non-specific antibody binding to the plates was blocked using 100 μL Licor Blocking Buffer (Li-Cor Biotechnology, Lincoln NE) for 1 hour at room temperature. Positive control samples and samples lacking cells were parallel processed with test samples as standards.
The amount Phospho-ERK was determined using an antibody specific for the phosphorylated form of ERK and compared to the amount of GAPDH. Primary antibodies used for detection were added as follows: Phospho-ERK (Cell Signaling cs9101) diluted 1:500 and GAPDH (Millipore MAB374) diluted 1:5000 in Licor block+0.05% Tween 20. The plates were incubated for 2 hours at room temperature. The plates were washed with PBS+0.05% Tween 20.
Secondary antibodies used to visualize primary antibodies were added as follows: Anti-rabbit-680 diluted 1:1000 and Anti-mouse-800 diluted 1:1000 in Licor Block+0.05% Tween 20 and incubated for 1 hour at room temperature. The plates were washed with PBS+0.05% Tween 20. A 100 μL aliquot of PBS was added to each well and the plates were read on a LICOR AERIUS plate reader.
The pERK (Thr202/Tyr204) signal was normalized with the GAPDH signal and percent of DMSO control values were calculated. IC50 values were generated using a 4 parameter fit of the dose response curve. Key: “A”: ≤1 μM, “B”>1 μM and N.D.=not determined.

Assay [2] concerns the target T2, KRas G12C (Homo sapiens, UniProt P01116, C118S/C51S/C80L/G12C).
T2 construct: GDP-loaded K-Ras (1-169) G12C, C51S, C80L, C118S
The assay can be described thus: KRas G12C Modification Assay (LCMS detection of covalent adduct). Format: binding. The following applies: 5 μM concentration for 3 hours. As for the experimental part:
This Example illustrates that exemplary compounds of the present invention covalently bind to KRas G12C using a LCMS assay to detect a covalent adduct of the exemplary compound and KRAS G12C.
The protein concentration of GDP-loaded K-Ras (1-169) G12C, C51S, C80L, C118S and GTP-loaded K-Ras (1-169) G12C, C51S, C80L, C118S, Q61H was adjusted to 2 μM in K-Ras Assay Buffer (25 mM HEPES, 150 mM NaCl, 5 mM MgCl2, and 10 mM Octyl β-glucopyranoside at pH 7.5). A 10 μL aliquot of each protein solution was transferred to a 384 well microtiter plate. Initial compound stocks were generated at fifty times their desired final assay concentration in DMSO.
Exemplary compounds of formula (I) were diluted 25-fold into K-Ras Assay Buffer to a final of two times their final concentration. A 10 μL aliquot of each diluted compound solution was added to each of the protein solutions in the microtiter plate to initiate reaction. Typical final compound concentrations were 3.0, 5.0 and 25.0 μM. At each time point, the reactions were quenched with 20 μL of a 25 mM acetic acid solution. Usual assay endpoints were 15, 180 and 1440 minutes. Once all reactions were quenched, the plates were heat sealed and the samples were injected into a LC/MS system for data acquisition.
Data collection took place on an Agilent 6520 Q-TOF Accurate Mass Spectrometer. Samples were injected in their liquid phase onto a C-3 reverse phase column to remove assay buffer and prepare the samples for mass spectrometer. The proteins were eluted from the column using an acetonitrile gradient and fed directly into the mass analyzer. Initial raw data analysis took place in Agilent MassHunter software immediately post data acquisition.
Raw data analysis of the intact protein was exclusively a deconvolution of the multiple charge states of each protein in solution using a maximum entropy deconvolution provided in Mass Hunter. To minimize complexity, only the data over limited mass ranges were considered for analysis, with a minimum of one Dalton mass step intervals. The heights of all masses identified during raw data analysis were exported to be further analyzed in Spotfire® data analysis software.
Final data analysis was a multistep process in the Spotfire® data analysis software package. Briefly, each protein mass was calculated as a percent of the total signal of that sample, that percentage was normalized to the percentage of signal of the protein in the absence of reactive compounds. Those normalized signals were reported as normalized percent of control (POC). […] Key: N.D. is not determined.

A value given as a limit tells only on which side of the number the result lay.

With `C=CC(=O)N1CC(C)(CN2C(=O)COc3cc(-c4cc(O)cc5ccccc45)c(Cl)cc32)C1` [Example 17, 4-((1-acryloyl-3-methylazetidin-3-yl)methyl)-6-chloro-7-(3-hydroxynaphthalen-1-yl)-2H-benzo[b][1,4]oxazin-3(4H)-one], at KRas G12C [1], the IC50 is more than 1000 nM. Moreover, the “POC (normalized percent of control, covalent modification of KRas G12C)” value at KRas G12C [2] is listed as 85% of control.
In the same order, the values of `C=CC(=O)N1CC(CN2C(=O)[C@@H](CCN(C)C)Oc3cc(-c4cc(O)cc5ccccc45)c(Cl)cc32)C1` [Example 18, (R)-4-((1-acryloylazetidin-3-yl)methyl)-6-chloro-2-(2-(dimethylamino)ethyl)-7-(3-hydroxynaphthalen-1-yl)-2H-benzo[b][1,4]oxazin-3(4H)-one] are not above 1000 nM and 91% of control.
In the same order, the values of `C=CC(=O)N1CC(CN2C(=O)COc3cc(-c4cc(O)cc5ccccc45)c(C)cc32)C1` [Example 19, 4-((1-acryloylazetidin-3-yl)methyl)-7-(3-hydroxynaphthalen-1-yl)-6-methyl-2H-benzo[b][1,4]oxazin-3(4H)-one] are more than 1000 nM and 99% of control.
The like results for `C=CC(=O)N1CC(CN2C(=O)C(CC3CCN(C)CC3)Oc3cc(-c4cc(O)cc5ccccc45)c(Cl)cc32)C1` (stereo not drawn) [Example 20, 4-((1-acryloylazetidin-3-yl)methyl)-6-chloro-7-(3-hydroxynaphthalen-1-yl)-2-((1-methylpiperidin-4-yl)methyl)-2H-benzo[b][1,4]oxazin-3(4H)-one] were, in that order, not above 1000 nM and 99% of control.
As to `C=CC(=O)N1CC(CN2C(=O)COc3cc(-c4cccc5ccccc45)c(Cl)cc32)C1` [Example 21, 4-((1-acryloylazetidin-3-yl)methyl)-6-chloro-7-(naphthalen-1-yl)-2H-benzo[b][1,4]oxazin-3(4H)-one], the IC50 at KRas G12C [1] is more than 1000 nM. Besides, at KRas G12C [2], the “POC (normalized percent of control, covalent modification of KRas G12C)” value is 90% of control.
`C=CC(=O)N1CC(CN2C(=O)C(CCCN3CCCC3)Oc3cc(-c4cc(O)cc5ccccc45)c(Cl)cc32)C1` (stereo not drawn) [Example 22, 4-((1-acryloylazetidin-3-yl)methyl)-6-chloro-7-(3-hydroxynaphthalen-1-yl)-2-(3-(pyrrolidin-1-yl)propyl)-2H-benzo[b][1,4]oxazin-3(4H)-one 2,2,2-trifluoroacetate]: the IC50 at KRas G12C [1] is not above 1000 nM. In addition, at KRas G12C [2], the “POC (normalized percent of control, covalent modification of KRas G12C)” value is reported as 97% of control.
In the same order, the values of `C=CC(=O)N1CC(C(C)N2C(=O)COc3cc(-c4cc(O)cc5ccccc45)c(Cl)cc32)C1` (stereo not drawn) [Example 23, 4-(1-(1-acryloylazetidin-3-yl)ethyl)-6-chloro-7-(3-hydroxynaphthalen-1-yl)-2H-benzo[b][1,4]oxazin-3(4H)-one] are more than 1000 nM and 34% of control.
In the same order, the values of `C=CC(=O)N1CC(CN2C(=O)C(CN3CCCC3)Oc3cc(-c4cccc5ccccc45)c(Cl)cc32)C1` (stereo not drawn) [Example 24, 4-((1-acryloylazetidin-3-yl)methyl)-6-chloro-7-(naphthalen-1-yl)-2-(pyrrolidin-1-ylmethyl)-2H-benzo[b][1,4]oxazin-3(4H)-one 2,2,2-trifluoroacetate] are more than 1000 nM and 86% of control.
On to `C=CC(=O)N1CC(CN2C(=O)C(CCCN3CCOCC3)Oc3cc(-c4cc(O)cc5ccccc45)c(Cl)cc32)C1` (stereo not drawn) [Example 25, 4-((1-acryloylazetidin-3-yl)methyl)-6-chloro-7-(3-hydroxynaphthalen-1-yl)-2-(3-morpholinopropyl)-2H-benzo[b][1,4]oxazin-3(4H)-one 2,2,2-trifluoroacetate], for which, on KRas G12C [1], the IC50 is not above 1000 nM. Moreover, the “POC (normalized percent of control, covalent modification of KRas G12C)” value on KRas G12C [2] is listed as 93% of control.
In the same order, the values of `C=CC(=O)N1CC(CN2C(=O)[C@H](CCN(C)C)Oc3cc(-c4cc(O)cc5ccccc45)c(Cl)cc32)C1` [Example 26, (S)-4-((1-acryloylazetidin-3-yl)methyl)-6-chloro-2-(2-(dimethylamino)ethyl)-7-(3-hydroxynaphthalen-1-yl)-2H-benzo[b][1,4]oxazin-3(4H)-one] are not above 1000 nM and 90% of control.
In the same order, the values of `C=CC(=O)N1CC(CN2C(=O)C(CN(C)C)Oc3cc(-c4cc(O)cc5ccccc45)c(Cl)cc32)C1` (stereo not drawn) [Example 27, 4-((1-acryloylazetidin-3-yl)methyl)-6-chloro-2-((dimethylamino)methyl)-7-(3-hydroxynaphthalen-1-yl)-2H-benzo[b][1,4]oxazin-3(4H)-one] are not above 1000 nM and 94% of control.
The like results for `C=CC(=O)N1CC(CN2C(=O)C(CN3CC[C@@H](OC)C3)Oc3cc(-c4cc(O)cc5ccccc45)c(Cl)cc32)C1` (stereo partly drawn) [Example 28, 4-((1-acryloylazetidin-3-yl)methyl)-6-chloro-7-(3-hydroxynaphthalen-1-yl)-2-(((R)-3-methoxypyrrolidin-1-yl)methyl)-2H-benzo[b][1,4]oxazin-3(4H)-one] were, in that order, not above 1000 nM and 93% of control.
As for `C=CC(=O)N1CC(CN2C(=O)COc3cc(-c4onc5ccccc45)c(Cl)cc32)C1` [Example 29, 4-((1-acryloylazetidin-3-yl)methyl)-7-(benzo[c]isoxazol-3-yl)-6-chloro-2H-benzo[b][1,4]oxazin-3(4H)-one], the IC50 at KRas G12C [1] is more than 1000 nM. Further, at KRas G12C [2], the “POC (normalized percent of control, covalent modification of KRas G12C)” value is listed as 25% of control.
In the same order, the values of `C=CC(=O)N1CC(CN2C(=O)C(CN3CC[C@H](OC)C3)Oc3cc(-c4cc(O)cc5ccccc45)c(Cl)cc32)C1` (stereo partly drawn) [Example 30, 4-((1-acryloylazetidin-3-yl)methyl)-6-chloro-7-(3-hydroxynaphthalen-1-yl)-2-(((S)-3-methoxypyrrolidin-1-yl)methyl)-2H-benzo[b][1,4]oxazin-3(4H)-one] are not above 1000 nM and 93% of control.
In the same order, the values of `C=CC(=O)N1CC(CN2C(=O)COc3cc(-c4cc(O)cc5ccccc45)c(Br)cc32)C1` [Example 31, 4-((1-acryloylazetidin-3-yl)methyl)-6-bromo-7-(3-hydroxynaphthalen-1-yl)-2H-benzo[b][1,4]oxazin-3(4H)-one] are not above 1000 nM and 88% of control.

Values taken from patent publication US11932633B2, “KRas G12C inhibitors” (Mirati Therapeutics, Inc., priority 2018, dated 2024).
